This passage reports inhibition results from PMC6352943, “Novel pyrazolo[3,4-d]pyrimidines: design, synthesis, anticancer activity, dual EGFR/ErbB2 receptor tyrosine kinases inhibitory activity, effects on cell cycle profile and caspase-3-mediated apoptosis” (Journal of Enzyme Inhibition and Medicinal Chemistry, 2019).

What is called inhibition is the drop in the measured response relative to a control, in per cent.

Common to all, as to test: NCI 60 cell line single dose screen (SRB)
Format in all cases: cell-based

One assay relates to A549/ATCC. As to conditions: Homo sapiens; A549/ATCC (non-small cell lung cancer), single dose 10^−5 M, 48 h; read-out: Growth inhibition percentage. As for the experimental part:
(§1) Anticancer activity screening of the newly synthesised compounds was measured in vitro utilising 60 different human tumour cell lines provided by US National Cancer Institute according to previously reported standard procedure[27–29] as follows: Cells are inoculated into 96-well microtitre plates in 100 ml. After cell inoculation, the microtitre plates are incubated at 37 °C, 5% CO2, 95% air and 100% relative humidity for 24 h prior to addition of experimental compounds. After 24 h, two plates of each cell line are fixed in situ with TCA, to represent a measurement of the cell population for each cell line at the time of drug addition (Tz). Experimental compounds are solubilised in dimethyl sulphoxide at 400-fold the desired final maximum test concentration and stored frozen prior to use. At the time of compound addition, an aliquot of frozen concentrate is thawed and diluted to twice the desired final maximum test concentration with complete medium containing […] gentamicin. Aliquots of […] of the compounds dilutions are added to the appropriate microtitre wells already containing 100 ml of medium, resulting in the required final compound concentration. Following compound addition, the plates are incubated for an additional 48 h at 37 °C, 5% CO2, 95% air, and 100% relative humidity. For adherent cells, the assay is terminated by the addition of cold trichloroacetic acid (TCA). Cells are fixed in situ by the gentle addition of 50 ml of cold 50% (w/v) TCA (final concentration, 10% TCA) and incubated for 60 min at 4 °C. The supernatant is discarded, and the plates are washed five times with tap water and air-dried. Sulphorhodamine B (SRB) solution (100 ml) at 0.4% (w/v) in 1% acetic acid is added to each well, and plates are incubated for 10 min at room temperature. After staining, unbound dye is removed by washing five times with 1% acetic acid and the plates are air-dried. Bound stain is subsequently solubilised with 10 mM trizma base, and the absorbance is read on an automated plate reader at a wavelength of 515 nm. For suspension cells, the methodology is the same except that the assay is terminated by fixing settled cells at the bottom of the wells by gently adding 50 ml of 80% TCA (final concentration, 16% TCA). Using the absorbance measurements [time zero, (Tz), control growth, (C), and test growth in the presence of compound (Ti)], the percentage growth is calculated for each compound. Percentage growth inhibition is calculated as: [(Ti – Tz)/(C – Tz)] x 100 for concentrations for which Ti >/=Tz. [(Ti – Tz)/Tz] x 100 for concentrations for which Ti < Tz.

The next assay concerns SNB-19. As to conditions: Homo sapiens; SNB-19 (CNS cancer), single dose 10^−5 M, 48 h; read-out: Growth inhibition percentage. As for the experimental part:
as §1

For another assay, the system named is SR. The following applies: Homo sapiens; SR (leukemia), single dose 10^−5 M, 48 h; read-out: Growth inhibition percentage. The protocol:
as §1

In the next assay the test system is DU-145. The following applies: Homo sapiens; DU-145 (prostate cancer), single dose 10^−5 M, 48 h; read-out: Growth inhibition percentage. The protocol: as §1
The next assay concerns HCT-116. As to conditions: Homo sapiens; HCT-116 (colon cancer), single dose 10^−5 M, 48 h; read-out: Growth inhibition percentage. The protocol:
as §1

For another assay, the system named is SNB-75. The following applies: Homo sapiens; SNB-75 (CNS cancer), single dose 10^−5 M, 48 h; read-out: Growth inhibition percentage. The protocol: as §1
For another assay, the system named is HL-60(TB). The following applies: Homo sapiens; HL-60(TB) (leukemia), single dose 10^−5 M, 48 h; read-out: Growth inhibition percentage. As for the experimental part:
as §1

The next assay concerns SK-MEL-5. As to conditions: Homo sapiens; SK-MEL-5 (melanoma), single dose 10^−5 M, 48 h; read-out: Growth inhibition percentage. As for the experimental part:
as §1

Another assay has as its system NCI-H23. The following applies: Homo sapiens; NCI-H23 (non-small cell lung cancer), single dose 10^−5 M, 48 h; read-out: Growth inhibition percentage. The protocol:
as §1

The subject of the next assay is 786-0. As to conditions: Homo sapiens; 786-0 (renal cancer), single dose 10^−5 M, 48 h; read-out: Growth inhibition percentage. The protocol: as §1
The test system of a further assay is NCI-H226. As to conditions: Homo sapiens; NCI-H226 (non-small cell lung cancer), single dose 10^−5 M, 48 h; read-out: Growth inhibition percentage. The protocol:
as §1

A further assay deals with OVCAR-3. The following applies: Homo sapiens; OVCAR-3 (ovarian cancer), single dose 10^−5 M, 48 h; read-out: Growth inhibition percentage. The protocol: as §1
Another assay deals with LOX IMVI. The following applies: Homo sapiens; LOX IMVI (melanoma), single dose 10^−5 M, 48 h; read-out: Growth inhibition percentage. The protocol: as §1
Another assay has as its system MCF7. The following applies: Homo sapiens; MCF7 (breast cancer), single dose 10^−5 M, 48 h; read-out: Growth inhibition percentage. As for the experimental part: as §1
The next assay relates to SK-MEL-2. The following applies: Homo sapiens; SK-MEL-2 (melanoma), single dose 10^−5 M, 48 h; read-out: Growth inhibition percentage. The protocol: as §1
For the next assay, the system named is A498. As to conditions: Homo sapiens; A498 (renal cancer), single dose 10^−5 M, 48 h; read-out: Growth inhibition percentage. The protocol:
as §1

Another assay concerns SF-268. As to conditions: Homo sapiens; SF-268 (CNS cancer), single dose 10^−5 M, 48 h; read-out: Growth inhibition percentage. The protocol: as §1
Another assay concerns OVCAR-4. As to conditions: Homo sapiens; OVCAR-4 (ovarian cancer), single dose 10^−5 M, 48 h; read-out: Growth inhibition percentage. The protocol: as §1
A further assay concerns ACHN. The following applies: Homo sapiens; ACHN (renal cancer), single dose 10^−5 M, 48 h; read-out: Growth inhibition percentage. As for the experimental part:
as §1

In the next assay the test system is SF-593. As to conditions: Homo sapiens, SF-593 (CNS cancer), single dose 10^−5 M, 48 h, read-out: Growth inhibition percentage. The protocol: as §1
The test system of the next assay is MDA-MB-435. As to conditions: Homo sapiens; MDA-MB-435 (melanoma), single dose 10^−5 M, 48 h; read-out: Growth inhibition percentage. As for the experimental part: as §1

Structures are written as SMILES.

With `Cc1nn(-c2ccc(F)cc2)c2ncnc(N3CCN(c4ccc(Cl)cc4)CC3)c12` [Compound 8c, 4–(4-(4-Chlorophenyl)piperazin-1-yl)-1–(4-fluorophenyl)-3-methyl-1H-pyrazolo[3,4-d]pyrimidine], the inhibition at 10 µM in the assay with A549/ATCC is -3.31%; in the assay on SNB-19, -4.77%; in the assay with SR, 11%; in the assay with DU-145, -5.88%; with HCT-116 it was 1.69%; in the assay with SNB-75 it was 0.02%. Moreover, the inhibition at 10 µM is 25.5% in the assay with HL-60(TB); 5.22% in the assay with SK-MEL-5; 20.7% in the assay on NCI-H23; -2.04% with 786-0; 7.59% in the assay on NCI-H226; 1.21% in the assay with OVCAR-3. Also, the inhibition at 10 µM in the assay with LOX IMVI is 4.93%; in the assay on MCF7 it was 3.1%; in the assay with SK-MEL-2, 9.37%; in the assay with A498, 9.66%; in the assay with SF-268, 4.51%; in the assay with OVCAR-4, -1.9%. Moreover, the inhibition at 10 µM with ACHN was 2.13%; in the assay on SF-593, 3.89%; in the assay with MDA-MB-435 it was -14.5%.
In the case of `Cc1nn(-c2ccc(F)cc2)c2ncnc(Nc3ccc(F)c(Cl)c3)c12` [Compound 7d, N-(3-Chloro-4-fluorophenyl)-1–(4-fluorophenyl)-3-methyl-1H-pyrazolo[3,4-d] pyrimidin-4-amine], the inhibition at 10 µM in the assay with A549/ATCC was 40.5%; in the assay on SNB-19 it was 20.4%; in the assay with SR it was 25.4%; with DU-145, -3.13%; with HCT-116, 19.2%; in the assay with SNB-75 it was 25%. The inhibition at 10 µM in the assay on HL-60(TB) is 15%; in the assay on SK-MEL-5, -0.44%; in the assay with NCI-H23 it was 7.53%; with 786-0 it was 21.3%; with NCI-H226 it was 62.9%; in the assay with OVCAR-3, 9.57%. For the same molecule, the inhibition at 10 µM with LOX IMVI is 8.68%; with MCF7 it was 15.7%; with SK-MEL-2, 2.61%; in the assay on A498, -5.43%; in the assay with SF-268 it was 3.94%; in the assay with OVCAR-4, 53.1%. For the same molecule, the inhibition at 10 µM came out at 60.4% in the assay with ACHN, 22.6% with SF-593 and 0.1% in the assay with MDA-MB-435.
